Experimental data from US20250332139A1, “PS[…] AND THEIR USE FOR TREATING […] AND NE[…] DISORDERS” (Transcend Therapeutics, Inc., priority 2021, published 2025).

Assays:
participants with PTSD = assay: IMPACT-1 open-label study (Part A); type: in vivo, human; design: reduction in Anxiety Sub-Scale of MADRS: concentration or dose not given beside the values
Description: The purpose of this pilot study is to evaluate the safety, tolerability, and efficacy of methylone in adult participants with PTSD. The study is conducted in two parts. Part A is open-label enrolling up to 15 evaluable participants with PTSD. After completion of Part A, enrollment will begin for Part B, which is double-blind, placebo-controlled and enrolling up to 64 evaluable participants with PTSD.
Brief Summary: This is a two-part study to assess methylone for the management of the symptoms of PTSD. Part A is an open-label, non-controlled assessment in up to 15 evaluable participants with PTSD to assess early safety and efficacy and to confirm procedures included in the blinded portion (Part B) of the study. After completion of Part A, enrollment for Part B will begin in up to 64 participants. Part B is identical to Part A with the exception of the inclusion of a placebo arm in Part B.
For each participant in Parts A and B, the study consists of: • Screening Period (Day-28 to Day-4): Informed consent, eligibility assessment, and enrolment of eligible participants. • Baseline/Preparatory Session (Day-3 to Day-1): Baseline assessments, confirmation of eligibility, and a preparatory psychoeducation session leading to enrolment confirmation. • Treatment Period (Day 1 to Day 24): Four weekly dose sessions, with associated remote sessions. The dose sessions last at least 8 hours, or until all effects (physical and psychological) have resolved (whichever is longer). Each dose session is followed by a safety phone call 1 day after dosing and efficacy assessments 2 days after dosing. Each dosing period is video recorded for quality and training purposes. The videos may be reviewed to ensure the Mentor is adhering to the Mentor training. • Follow-Up Period (Day 29 to Day 64): Follow-Up visits for safety and efficacy occur at 1, 2, 3 and 6 weeks post-final study drug administration. In addition, there are Mentor-Led Reflection Sessions 1, 2 and 3 weeks post-final study drug administration. Participants are contacted via telephone on Day 57 (±2 days) for Follow-Up. • Discontinuations: Participants who discontinue prematurely are asked to return for an extra visit to duplicate the 6-week end-of-study (EOS) visit.
Each dose was given as an initial dose, followed by a second dose 90 minutes later. During the dosing session, participants were accompanied by a trained Mentor who provided non-directive support. After the 4-week treatment period, participants attended follow-up visits at 1, 2, 3, and 6 weeks following the last dose. Safety was assessed via standard measures including adverse events. PTSD symptoms were assessed via Clinician-Administered PTSD Scale for DSM-5 (CAPS-5), depressive symptoms were assessed via Montgomery-Åsberg Depression Rating Scale (MADRS). Anti-anxiety efficacy was evaluated using the Anxiety Sub-Scale of MADRS, namely, questions (Items 3, 4, 5, 6) that address four anxiety items (inner tension, reduced sleep, reduced appetite, concentration difficulties) Changes from baseline were analyzed using a paired t-test p-values.
Methods: The IMPACT-1 study is a multi-center, two-part clinical trial. Part A has completed and was an open-label evaluation involving 14 participants with PTSD. Eligible participants are adults with severe PTSD (CAPS-5 ≥35) who had failed at least 1 prior treatment (pharmacotherapy and/or psychotherapy) for PTSD. […] Throughout each dosing session, participants were provided non-directive psychological support by a trained mental health practitioner. Following the 4-week treatment period, participants were followed for an additional 6 weeks to evaluate the durability of the therapeutic effect. PTSD symptom improvement was evaluated on the CAPS-5. Functioning was assessed via the 3 domains (school/work, family life, social life) of the Sheehan Disability Scale (SDS). Global improvement was measured by the CGI-I. Safety was assessed by monitoring adverse events, vital signs, and C-SSRS. […]

[1] = biological target: T1, dopamine transporter (DAT) (Rattus norvegicus, UniProt P23977); assay: Competitive radioligand binding, [3H]WIN35428, rat brain lysates
T1 construct: from tissue; synaptosomes for uptake and release
T1 sequence (P23977 whole entry): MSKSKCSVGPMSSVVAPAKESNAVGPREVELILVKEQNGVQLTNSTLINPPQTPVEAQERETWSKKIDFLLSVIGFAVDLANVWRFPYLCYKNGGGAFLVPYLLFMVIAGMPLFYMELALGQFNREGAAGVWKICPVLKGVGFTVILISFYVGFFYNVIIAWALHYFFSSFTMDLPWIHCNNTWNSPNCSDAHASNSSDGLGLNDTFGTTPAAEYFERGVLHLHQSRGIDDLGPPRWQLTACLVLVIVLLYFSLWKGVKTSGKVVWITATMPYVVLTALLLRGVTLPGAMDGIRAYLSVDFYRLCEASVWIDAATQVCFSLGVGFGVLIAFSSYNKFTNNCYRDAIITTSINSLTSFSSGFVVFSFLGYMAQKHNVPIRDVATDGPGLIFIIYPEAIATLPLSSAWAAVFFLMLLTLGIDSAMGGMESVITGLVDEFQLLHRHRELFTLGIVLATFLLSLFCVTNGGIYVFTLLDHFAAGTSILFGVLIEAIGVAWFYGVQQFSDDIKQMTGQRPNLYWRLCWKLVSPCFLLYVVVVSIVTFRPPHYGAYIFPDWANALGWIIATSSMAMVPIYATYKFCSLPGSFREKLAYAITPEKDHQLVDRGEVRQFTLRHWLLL
Description: Radioligands used were: [^3H] Citalopram (PerkinElmer NET1039250UC); [^3H] Nisoxetine (PerkinElmer NET1084250UC); [^3H] WIN35428 (PerkinElmer NET1033250UC). […] Rat brains were dissected and tissue was homogenized in cold lysis buffer, centrifged at 100×g for 2 min and the supernatant was placed in a fresh tube. Supernatant was centrifuged at 13,000×g for 10 min at 4° C. to re-pellet the cell lysate. The pellet was resuspended in fresh wash buffer (50 mM Tris-HCl; 5 mM MgCl2; 5 mM EDTA) and centrifuged a third time. The pellet was then resuspended in wash buffer containing 10% sucrose as a cryoprotectant, divided into aliquots (0.3 mL) and stored at −80° C. A sample of the homogenate was analyzed for protein content using the SIGMA® BCA assay. On the day of the assay, the membrane preparation was thawed, and the pellet resuspended in final assay buffer. […] To each well was added 150 μL membranes, 50 μL of non-specific compound or buffer and 50 μL radioligand solution in buffer. […] Ki was subsequently calculated using the Cheng-Prusoff equation.

168 GPCRs [2] = biological target: 168 GPCRs (Homo sapiens, UniProt P32249); assay: β-arrestin GPCR screen (PathHunter/GPCRmax), agonist mode; type: cell-based; design: host or cells: PathHunter cell lines; conditions: GPCR EBI2; Agonist mode; 10 uM
168 GPCRs (Homo sapiens, UniProt P32249), sequence (P32249 whole entry): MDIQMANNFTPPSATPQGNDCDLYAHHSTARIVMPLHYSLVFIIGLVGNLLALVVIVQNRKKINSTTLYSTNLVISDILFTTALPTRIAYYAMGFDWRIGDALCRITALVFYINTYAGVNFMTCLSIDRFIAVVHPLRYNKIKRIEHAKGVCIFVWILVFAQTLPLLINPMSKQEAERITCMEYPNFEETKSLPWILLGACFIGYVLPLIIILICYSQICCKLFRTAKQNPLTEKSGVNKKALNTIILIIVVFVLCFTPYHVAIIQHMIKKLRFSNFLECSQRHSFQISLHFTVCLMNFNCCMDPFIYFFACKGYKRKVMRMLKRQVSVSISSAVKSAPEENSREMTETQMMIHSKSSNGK
Description: (§1) For agonist determination, cells were incubated with sample to induce response. […] Vehicle concentration was 1%.

168 GPCRs [3] = biological target: 168 GPCRs (Homo sapiens, UniProt O95838); assay: as above; type: cell-based; design: host or cells: PathHunter cell lines; conditions: GPCR GLP2R; Agonist mode; 10 uM
168 GPCRs (Homo sapiens, UniProt O95838), sequence (O95838 whole entry): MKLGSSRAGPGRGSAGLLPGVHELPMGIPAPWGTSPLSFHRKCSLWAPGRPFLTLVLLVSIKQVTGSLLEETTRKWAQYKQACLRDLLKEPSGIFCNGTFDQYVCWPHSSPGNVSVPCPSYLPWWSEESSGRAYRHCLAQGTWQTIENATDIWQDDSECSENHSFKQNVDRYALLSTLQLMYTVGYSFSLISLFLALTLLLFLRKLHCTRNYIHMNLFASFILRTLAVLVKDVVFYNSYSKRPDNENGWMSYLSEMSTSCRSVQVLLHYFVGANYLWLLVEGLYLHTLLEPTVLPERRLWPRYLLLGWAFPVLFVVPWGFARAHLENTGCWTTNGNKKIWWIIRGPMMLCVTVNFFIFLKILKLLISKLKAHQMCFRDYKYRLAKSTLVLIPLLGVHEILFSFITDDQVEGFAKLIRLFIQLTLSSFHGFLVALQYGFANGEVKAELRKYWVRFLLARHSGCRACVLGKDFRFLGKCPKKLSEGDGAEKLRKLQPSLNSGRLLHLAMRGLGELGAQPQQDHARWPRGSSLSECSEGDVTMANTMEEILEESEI
Description: as §1

168 GPCRs [4] = biological target: 168 GPCRs (Homo sapiens, UniProt Q969F8); assay: as above; type: cell-based; design: host or cells: PathHunter cell lines; conditions: KISS1R; Agonist; 1 uM
168 GPCRs (Homo sapiens, UniProt Q969F8), sequence (Q969F8 whole entry): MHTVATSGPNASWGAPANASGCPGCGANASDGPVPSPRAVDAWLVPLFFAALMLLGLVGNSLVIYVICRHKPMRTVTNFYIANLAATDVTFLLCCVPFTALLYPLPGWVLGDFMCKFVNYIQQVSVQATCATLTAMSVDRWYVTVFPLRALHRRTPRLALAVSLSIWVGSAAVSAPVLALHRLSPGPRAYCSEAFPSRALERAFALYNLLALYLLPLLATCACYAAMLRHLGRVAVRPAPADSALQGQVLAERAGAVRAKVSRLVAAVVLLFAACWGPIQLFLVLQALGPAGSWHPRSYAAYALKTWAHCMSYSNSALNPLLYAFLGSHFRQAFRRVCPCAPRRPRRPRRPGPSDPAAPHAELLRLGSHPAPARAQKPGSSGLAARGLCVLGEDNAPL
Description: as §1

168 GPCRs [5] = biological target: 168 GPCRs (Homo sapiens, UniProt Q8NFJ6); assay: as above; type: cell-based; design: host or cells: PathHunter cell lines; conditions: PROKR2; Agonist; 1 uM
168 GPCRs (Homo sapiens, UniProt Q8NFJ6), sequence (Q8NFJ6 whole entry): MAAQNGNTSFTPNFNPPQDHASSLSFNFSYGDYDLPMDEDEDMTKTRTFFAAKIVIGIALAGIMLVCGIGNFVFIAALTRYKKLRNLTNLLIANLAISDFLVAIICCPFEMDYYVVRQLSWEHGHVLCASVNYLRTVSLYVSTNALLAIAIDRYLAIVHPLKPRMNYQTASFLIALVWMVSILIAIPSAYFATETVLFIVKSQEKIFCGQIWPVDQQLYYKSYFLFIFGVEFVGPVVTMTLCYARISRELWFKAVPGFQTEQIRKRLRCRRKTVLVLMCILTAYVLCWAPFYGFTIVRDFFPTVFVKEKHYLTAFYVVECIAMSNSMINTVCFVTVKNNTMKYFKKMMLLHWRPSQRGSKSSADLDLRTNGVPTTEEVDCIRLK
Description: as §1

Compound: CNC(C)C(=O)c1ccc2c(c1)OCO2 (stereo not drawn) [methylone, 3,4-methylenedioxy-N-methylcathinone]
- decrease in CAPS-5 score (participants with PTSD; Day 3): 8.4 points
- decrease in MADRS score (participants with PTSD; Day 3): 8.2 points
- reduction in Anxiety Sub-Scale of MADRS (participants with PTSD; Day 3): 20%
- reduction in Anxiety Sub-Scale of MADRS (participants with PTSD; Day 10): 43%
- reduction in Anxiety Sub-Scale of MADRS (participants with PTSD; Day 17): 50%
- reduction in Anxiety Sub-Scale of MADRS (participants with PTSD; Day 24): 57%
- reduction in Anxiety Sub-Scale of MADRS (participants with PTSD; Day 29): 56%
- reduction in Anxiety Sub-Scale of MADRS (participants with PTSD; Day 36): 66%
- reduction in Anxiety Sub-Scale of MADRS (participants with PTSD; Day 43): 64%
- SDS Family Life score, mean (SD) (participants with PTSD; Day 64): 3.1 (3.45)
- SDS Mean Overall score, mean (SD) (participants with PTSD; Day 64): 3.1 (3.12)
- SDS Social Life score, mean (SD) (participants with PTSD; Day 64): 3.2 (3.39)
- SDS Work/School score, mean (SD) (participants with PTSD; Day 64): 3.3 (3.78)
- reduction in Anxiety Sub-Scale of MADRS (participants with PTSD; Day 64): 66%
- PSQI total score change (participants with PTSD; end of study (6 weeks after the last dose)): −4.0 points
- drug-related SAEs (participants with PTSD; human, in vivo, oral, 4 weeks): No drug-related SAEs occurred
- Ki [1]: 5.73 µM
- activity at 10 µM (168 GPCRs [2]): -0.1%
- activity at 10 µM (168 GPCRs [3]): -1%
- activity at 1 µM (168 GPCRs [4]): ~-5%
- activity at 1 µM (168 GPCRs [5]): ~0%
